Data published in US6479435B1, “Diaryl ethers and processes for their preparation and herbicidal and desiccant compositions containing them” (ISK Americas Incorporated, priority 1997, dated 2002).

Columns and labels:
Format in all cases: in vivo
[1] = tested on: soybean (Glycine max L., var. Pella 86, SOY); assay: Pre-emerge greenhouse test, crop damage rating; conditions: 1000 g ai/ha, 14 days after application, rating scale 0-100
From the text: (§1) A standard greenhouse herbicide activity screening system was used to evaluate the herbicidal efficacy and crop safety of these test compounds. Six broadleaf weed species including redroot pigweed (Amaranthus retroflexus, AMARE), velvetleaf (Abutilon theophrasti, ABUTH), sicklepod (Cassia obtusifolia, CASOB), ivyleaf morningglory (Ipomoea hederacea, IPOHE), lambsquarters (Chenopodium album, CHEAL) and common ragweed (Ambrosia artemisiifolia L., AMBEL) were used as test species. Four grass weed species including green foxtail (Setaria viridis, SETVI), barnyardgrass (Echinochloa crusgalli, ECHCG), Johnsongrass (Sorghum halepense, SORHA), and large crabgrass (Digitaria sanguinalis, DIGSA) were also used. In addition, three crop species, field corn (Zea mays L., var. Dekalb 535, CORN), soybean (Glycine max L., var. Pella 86, SOY), and upland rice (Oryza sp., var.Tebonnet, RICE) were included.
(§2) All plants were grown in 10 cm square plastic pots which were filled with a sandy loam soil mix. For preemerge tests, seeds were planted one day prior to application of the test compounds. Immediately after application, test units of the pre-emerge applications were watered at the soil surface to incorporate the test materials. Subsequently, these test units were bottom-watered.
(§3) All test compounds were dissolved in acetone and applied to the test units in a volume of 187 l/ha. Test materials were applied at rates ranging from 125 g ai/ha to 1000 g ai/ha using a track sprayer equipped with a TJ8001E even flow flat fan spray nozzle. Plants were arranged on a shelf so that the top of the canopy (post-emerge) or top of the soil surface (pre-emerge) was 40-45 cm below the nozzle. Pressurized air was used to force the test solution through the nozzle as it was mechanically advanced (via electrically driven chain drive) over the top of all test plants/pots. This application simulates a typical commercial field herbicide application.
(§4) At 14 days after application of the test materials, phytotoxicity ratings were recorded. A rating scale of 0-100 was used as previously described in Research Methods in Weed Science, 2nd edition, B. Truelove, Ed., Southern Weed Science Society, Auburn University, Auburn, Ala., 1977. Briefly, “0” corresponds to no damage and “100” corresponds to complete death of all plants in the test unit. This scale was used both to determine efficacy against weed species and damage to crop species. Herbicide activity data for various compounds of this invention, which are shown by compound number in Tables 1-9, are shown in Tables 13 and 14.

[2] = tested on: green foxtail (Setaria viridis, SETVI); assay: Pre-emerge greenhouse herbicide test, phytotoxicity rating; conditions: 1000 g ai/ha, 14 days after application, rating scale 0-100
From the text: as §1, §2, §3, §4

[3] = tested on: sicklepod (Cassia obtusifolia, CASOB); assay: as above; conditions: 1000 g ai/ha, 14 days after application, rating scale 0-100
From the text: as §1, §2, §3, §4

[4] = tested on: lambsquarters (Chenopodium album, CHEAL); assay: as above; conditions: 1000 g ai/ha, 14 days after application, rating scale 0-100
From the text: as §1, §2, §3, §4

[5] = tested on: redroot pigweed (Amaranthus retroflexus, AMARE); assay: as above; conditions: 1000 g ai/ha, 14 days after application, rating scale 0-100
From the text: as §1, §2, §3, §4

[6] = tested on: velvetleaf (Abutilon theophrasti, ABUTH); assay: as above; conditions: 1000 g ai/ha, 14 days after application, rating scale 0-100
From the text: as §1, §2, §3, §4

[7] = tested on: Johnsongrass (Sorghum halepense, SORHA); assay: as above; conditions: 1000 g ai/ha, 14 days after application, rating scale 0-100
From the text: as §1, §2, §3, §4

[8] = tested on: barnyardgrass (Echinochloa crusgalli, ECHCG); assay: as above; conditions: 1000 g ai/ha, 14 days after application, rating scale 0-100
From the text: as §1, §2, §3, §4

[9] = tested on: ivyleaf morningglory (Ipomoea hederacea, IPOHE); assay: as above; conditions: 1000 g ai/ha, 14 days after application, rating scale 0-100
From the text: as §1, §2, §3, §4

[10] = tested on: large crabgrass (Digitaria sanguinalis, DIGSA); assay: as above; conditions: 1000 g ai/ha, 14 days after application, rating scale 0-100
From the text: as §1, §2, §3, §4

[11] = tested on: field corn (Zea mays L., var. Dekalb 535, CORN); assay: Pre-emerge greenhouse test, crop damage rating; conditions: 1000 g ai/ha, 14 days after application, rating scale 0-100
From the text: as §1, §2, §3, §4

[12] = tested on: upland rice (Oryza sp., var.Tebonnet, RICE); assay: Pre-emerge greenhouse test, crop damage rating; conditions: 1000 g ai/ha, 14 days after application, rating scale 0-100
From the text: as §1, §2, §3, §4

[13] = tested on: field corn (Zea mays L., var. Dekalb 535, CORN); assay: Post-emerge greenhouse test, crop damage rating; conditions: 1000 g al/ha, 14 days after application
From the text: as §1, §3
(§5) In the post-emerge test, a commercial non-ionic surfactant was also included (0.25% v/v) to enhance wetting of the leaf surfaces Qf target plants at rates ranging from 63 g ai/ha to 1000 g ai/ha. For post-emerge tests, seeds were planted 8-21 days prior to the test to allow emergence and good foliage development prior to application of the test substances. At the time of the post-emerge application, plants of all species were usually at the 2-3 leaf stage of development. Post-emerge test units were always bottom-watered.
as §4

[14] = tested on: upland rice (Oryza sp., var.Tebonnet, RICE); assay: Post-emerge greenhouse test, crop damage rating; conditions: 1000 g al/ha, 14 days after application
From the text: as §1, §3, §5, §4

[15] = tested on: green foxtail (Setaria viridis, SETVI); assay: Post-emerge greenhouse herbicide test, phytotoxicity rating; conditions: 1000 g al/ha, 14 days after application
From the text: as §1, §3, §5, §4

[16] = tested on: sicklepod (Cassia obtusifolia, CASOB); assay: as above; conditions: 1000 g al/ha, 14 days after application
From the text: as §1, §3, §5, §4

[17] = tested on: lambsquarters (Chenopodium album, CHEAL); assay: as above; conditions: 1000 g al/ha, 14 days after application
From the text: as §1, §3, §5, §4

[18] = tested on: redroot pigweed (Amaranthus retroflexus, AMARE); assay: as above; conditions: 1000 g al/ha, 14 days after application
From the text: as §1, §3, §5, §4

[19] = tested on: velvetleaf (Abutilon theophrasti, ABUTH); assay: as above; conditions: 1000 g al/ha, 14 days after application
From the text: as §1, §3, §5, §4

[20] = tested on: Johnsongrass (Sorghum halepense, SORHA); assay: as above; conditions: 1000 g al/ha, 14 days after application
From the text: as §1, §3, §5, §4

[21] = tested on: barnyardgrass (Echinochloa crusgalli, ECHCG); assay: as above; conditions: 1000 g al/ha, 14 days after application
From the text: as §1, §3, §5, §4

[22] = tested on: ivyleaf morningglory (Ipomoea hederacea, IPOHE); assay: as above; conditions: 1000 g al/ha, 14 days after application
From the text: as §1, §3, §5, §4

[23] = tested on: large crabgrass (Digitaria sanguinalis, DIGSA); assay: as above; conditions: 1000 g al/ha, 14 days after application
From the text: as §1, §3, §5, §4

[24] = tested on: soybean (Glycine max L., var. Pella 86, SOY); assay: Post-emerge greenhouse test, crop damage rating; conditions: 1000 g al/ha, 14 days after application
From the text: as §1, §3, §5, §4

Row | Compound | crop damage rating SOY [1] | phytotoxicity rating SETVI [2] | phytotoxicity rating CASOB [3] | phytotoxicity rating CHEAL [4] | phytotoxicity rating AMARE [5] | phytotoxicity rating ABUTH [6] | phytotoxicity rating SORHA [7] | phytotoxicity rating ECHCG [8] | phytotoxicity rating IPOHE [9] | phytotoxicity rating DIGSA [10] | crop damage rating CORN [11] | crop damage rating RICE [12] | CORN crop damage rating (0-100) [13] | RICE crop damage rating (0-100) [14] | SETVI phytotoxicity rating (0-100) [15] | CASOB phytotoxicity rating (0-100) [16] | CHEAL phytotoxicity rating (0-100) [17] | AMARE phytotoxicity rating (0-100) [18] | ABUTH phytotoxicity rating (0-100) [19] | SORHA phytotoxicity rating (0-100) [20] | further results
1 | O=c1cc2n(c(=O)n1-c1cc(Oc3ccccc3[N+](=O)[O-])c(Cl)cc1F)CCC2 [Compound 5-1] | 55 | 99 | 40 | 100 | 99 | 100 | 90 | 95 | 70 | 100 | 5 | 70 | 0 | 10 | 20 | 10 | 80 | 30 | 100 | 10 | ECHCG phytotoxicity rating (0-100) [21]: 30; IPOHE phytotoxicity rating (0-100) [22]: 90; DIGSA phytotoxicity rating (0-100) [23]: 0; SOY crop damage rating (0-100) [24]: 40
2 | O=c1cc2n(c(=O)n1-c1cc(Oc3ccc([N+](=O)[O-])cc3)c(Cl)cc1F)CCC2 [Compound 5-2] | 10 | 90 | 0 | 100 | 40 | 100 | 80 | 50 | 50 | 70 | 0 | 50 | 0 | 10 | 10 | 0 | 40 | 20 | 70 | 0 | ECHCG phytotoxicity rating (0-100) [21]: 0; IPOHE phytotoxicity rating (0-100) [22]: 40; DIGSA phytotoxicity rating (0-100) [23]: 0; SOY crop damage rating (0-100) [24]: 15
3 | Nc1ccc(Oc2cc(-n3c(=O)cc4n(c3=O)CCC4)c(F)cc2Cl)cc1 [Compound 5-3] | 40 | 20 | 10 | 0 | 100 | 99 | 40 | 0 | 0 | 70 | 0 | 20 | 0 | 0 | 0 | 0 | 0 | 0 | 0 | 0 | ECHCG phytotoxicity rating (0-100) [21]: 0; IPOHE phytotoxicity rating (0-100) [22]: 0; DIGSA phytotoxicity rating (0-100) [23]: 0; SOY crop damage rating (0-100) [24]: 0
